From US10828317B2, “Method of treating bacterial infections” (priority 2016, dated 2020)
Where two headings read alike, the source gives them in different places.

Tests used:
K. pneumoniae EN006 = assay: MIC, WT (EN006 = EN0006, ATCC 13883); format: cell-based, Klebsiella pneumoniae
P. aeruginosa EN0459 = assay: MIC; format: cell-based, Pseudomonas aeruginosa; conditions: Pseudomonas aeruginosa, read-out: MIC
E. coli EN0235 = assay: microbe, parasite or virus in culture; format: cell-based; conditions: Escherichia coli
P. aeruginosa EN0460 = assay: MIC; format: cell-based, Pseudomonas aeruginosa; conditions: Pseudomonas aeruginosa, read-out: MIC
S. aureus EN008 = assay: MIC, Gram-positive control; format: cell-based, Staphylococcus aureus; conditions: Staphylococcus aureus, read-out: MIC
E. coli EN0134 = assay: MIC, AmpC (CMY-4); format: cell-based; conditions: Escherichia coli, read-out: MIC
K. pneumoniae EN0244 = assay: MIC, colistinR; format: cell-based; conditions: Klebsiella pneumoniae, read-out: MIC
K. pneumoniae EN0249 = assay: MIC, colistinR; format: cell-based; conditions: Klebsiella pneumoniae, read-out: MIC
K. pneumoniae EN0245 = assay: MIC, colistinR; format: cell-based; conditions: Klebsiella pneumoniae, read-out: MIC
K. pneumoniae EN0140 = assay: MIC, AmpC (DHA-1); format: cell-based; conditions: Klebsiella pneumoniae, read-out: MIC
S. marescens EN0454 = assay: MIC; format: cell-based, Serratia marescens; conditions: Serratia, read-out: MIC
P. mirabilis EN0457 = assay: MIC; format: cell-based, Proteus mirabilis; conditions: Proteus mirabilis, read-out: MIC
K. pneumoniae EN0145 = assay: MIC, KPC-2; format: cell-based; conditions: Klebsiella pneumoniae, read-out: MIC
A. baumannii EN016 = assay: MIC, WT; format: cell-based, Acinetobacter baumannii; conditions: Acinetobacter baumannii, read-out: MIC
E. aerogenes EN0461 = assay: MIC; format: cell-based, Enterobacter aerogenes; conditions: Klebsiella aerogenes, read-out: MIC
K. pneumoniae EN0144 = assay: MIC, MBL (VIM-1); format: cell-based; conditions: Klebsiella pneumoniae, read-out: MIC
E. coli EN0136 = assay: MIC, ESBL (CTX-M-2); format: cell-based; conditions: Escherichia coli, read-out: MIC

**Q.** Which results are given for `COc1cc(Cc2cnc(N)nc2N)cc(OC)c1OC` [Trimethoprim, trimethoprim]?
**A.** MIC (K. pneumoniae EN006; Klebsiella pneumoniae, EN006, combination FdUrd+trimethoprim+uridine, Table 8, read-out: MIC): 1 µg/mL; MIC (K. pneumoniae EN006; Klebsiella pneumoniae, EN006, combination didanosine+trimethoprim+uridine, Table 10, read-out: MIC): 1 µg/mL; MIC (K. pneumoniae EN006; combination AZT+trimethoprim+uridine, Table 17B): 0.25 µg/mL; MIC (K. pneumoniae EN006; combination FdUrd+trimethoprim+uridine, Table 19): 1 µg/mL; MIC (K. pneumoniae EN006; combination didanosine+trimethoprim+uridine, Table 20): 1 µg/mL; MIC (P. aeruginosa EN0459; EN0459, Combination 1 AZT+trimethoprim+uridine, Table 16): > 4 µg/mL; MIC (P. aeruginosa EN0459; EN0459, Combination 2 AZT+trimethoprim+uridine+thymidine, Table 16): > 4 µg/mL; MIC (P. aeruginosa EN0459; EN0459, combination AZT+trimethoprim+uridine, Table 6): > 4 µg/mL; MIC (P. aeruginosa EN0459; EN0459, combination FdUrd+trimethoprim+uridine, Table 8): > 8 µg/mL; MIC (P. aeruginosa EN0459; EN0459, combination didanosine+trimethoprim+uridine, Table 10): > 8 µg/mL; MIC (E. coli EN0235; EN0235, combination FdUrd+trimethoprim+uridine, Table 19): 0.125 µg/mL; MIC (E. coli EN0235; EN0235, combination didanosine+trimethoprim+uridine, Table 20): 0.25 µg/mL; MIC (P. aeruginosa EN0460; EN0460, Combination 1 AZT+trimethoprim+uridine, Table 16): > 4 µg/mL; MIC (P. aeruginosa EN0460; EN0460, Combination 2 AZT+trimethoprim+uridine+thymidine, Table 16): > 4 µg/mL; MIC (P. aeruginosa EN0460; EN0460, combination AZT+trimethoprim+uridine, Table 6): > 4 µg/mL; MIC (P. aeruginosa EN0460; EN0460, combination FdUrd+trimethoprim+uridine, Table 8): > 8 µg/mL; MIC (P. aeruginosa EN0460; EN0460, combination didanosine+trimethoprim+uridine, Table 10): > 8 µg/mL; MIC (S. aureus EN008; EN008, Combination 1 AZT+trimethoprim+uridine, Table 16): 1 µg/mL; MIC (S. aureus EN008; EN008, Combination 2 AZT+trimethoprim+uridine+thymidine, Table 16): > 4 µg/mL; MIC (S. aureus EN008; EN008, combination AZT+trimethoprim+uridine, Table 6): 1 µg/mL; MIC (S. aureus EN008; EN008, combination FdUrd+trimethoprim+uridine, Table 8): < 0.016 µg/mL; MIC (S. aureus EN008; EN008, combination didanosine+trimethoprim+uridine, Table 10): 1 µg/mL; MIC (E. coli EN0134; EN0134, combination FdUrd+trimethoprim+uridine, Table 19): > 8 µg/mL; MIC (E. coli EN0134; EN0134, combination didanosine+trimethoprim+uridine, Table 20): > 8 µg/mL; MIC (K. pneumoniae EN0244; EN0244, combination AZT+trimethoprim+uridine, Table 17B): 0.5 µg/mL; MIC (K. pneumoniae EN0244; EN0244, combination FdUrd+trimethoprim+uridine, Table 19): > 8 µg/mL; MIC (K. pneumoniae EN0244; EN0244, combination didanosine+trimethoprim+uridine, Table 20): > 8 µg/mL; MIC (K. pneumoniae EN0249; EN0249, combination AZT+trimethoprim+uridine, Table 17B): 1 µg/mL; MIC (K. pneumoniae EN0249; EN0249, combination FdUrd+trimethoprim+uridine, Table 19): > 8 µg/mL; MIC (K. pneumoniae EN0249; EN0249, combination didanosine+trimethoprim+uridine, Table 20): > 8 µg/mL; MIC (K. pneumoniae EN0245; EN0245, combination AZT+trimethoprim+uridine, Table 17B): 1 µg/mL; MIC (K. pneumoniae EN0245; EN0245, combination FdUrd+trimethoprim+uridine, Table 19): > 8 µg/mL; MIC (K. pneumoniae EN0245; EN0245, combination didanosine+trimethoprim+uridine, Table 20): > 8 µg/mL; MIC (K. pneumoniae EN0140; EN0140, combination AZT+trimethoprim+uridine, Table 17B): 1 µg/mL; MIC (K. pneumoniae EN0140; EN0140, combination FdUrd+trimethoprim+uridine, Table 19): > 8 µg/mL; MIC (K. pneumoniae EN0140; EN0140, combination didanosine+trimethoprim+uridine, Table 20): > 8 µg/mL; MIC (S. marescens EN0454; EN0454, Combination 1 AZT+trimethoprim+uridine, Table 16): > 4 µg/mL; MIC (S. marescens EN0454; EN0454, Combination 2 AZT+trimethoprim+uridine+thymidine, Table 16): > 4 µg/mL; MIC (S. marescens EN0454; EN0454, combination AZT+trimethoprim+uridine, Table 6): 1 µg/mL; MIC (S. marescens EN0454; EN0454, combination FdUrd+trimethoprim+uridine, Table 8): > 8 µg/mL; MIC (S. marescens EN0454; EN0454, combination didanosine+trimethoprim+uridine, Table 10): > 8 µg/mL; MIC (P. mirabilis EN0457; EN0457, Combination 1 AZT+trimethoprim+uridine, Table 16): 2 µg/mL; MIC (P. mirabilis EN0457; EN0457, Combination 2 AZT+trimethoprim+uridine+thymidine, Table 16): > 4 µg/mL; MIC (P. mirabilis EN0457; EN0457, combination AZT+trimethoprim+uridine, Table 6): 2 µg/mL; MIC (P. mirabilis EN0457; EN0457, combination FdUrd+trimethoprim+uridine, Table 8): 2 µg/mL; MIC (P. mirabilis EN0457; EN0457, combination didanosine+trimethoprim+uridine, Table 10): 4 µg/mL; MIC (K. pneumoniae EN0145; EN0145, combination AZT+trimethoprim+uridine, Table 17B): 2 µg/mL; MIC (K. pneumoniae EN0145; EN0145, combination FdUrd+trimethoprim+uridine, Table 19): > 8 µg/mL; MIC (K. pneumoniae EN0145; EN0145, combination didanosine+trimethoprim+uridine, Table 20): > 8 µg/mL; MIC (A. baumannii EN016; EN016, Combination 1 AZT+trimethoprim+uridine, Table 16): > 4 µg/mL; MIC (A. baumannii EN016; EN016, Combination 2 AZT+trimethoprim+uridine+thymidine, Table 16): > 4 µg/mL; MIC (A. baumannii EN016; EN016, combination AZT+trimethoprim+uridine, Table 6): > 4 µg/mL; MIC (A. baumannii EN016; EN016, combination FdUrd+trimethoprim+uridine, Table 8): 8 µg/mL; MIC (A. baumannii EN016; EN016, combination didanosine+trimethoprim+uridine, Table 10): > 8 µg/mL; MIC (E. aerogenes EN0461; EN0461, Combination 1 AZT+trimethoprim+uridine, Table 16): 0.25 µg/mL; MIC (E. aerogenes EN0461; EN0461, Combination 2 AZT+trimethoprim+uridine+thymidine, Table 16): 2 µg/mL; MIC (E. aerogenes EN0461; EN0461, combination AZT+trimethoprim+uridine, Table 6): 0.25 µg/mL; MIC (E. aerogenes EN0461; EN0461, combination FdUrd+trimethoprim+uridine, Table 8): 2 µg/mL; MIC (E. aerogenes EN0461; EN0461, combination didanosine+trimethoprim+uridine, Table 10): 1 µg/mL; MIC (K. pneumoniae EN0144; EN0144, combination AZT+trimethoprim+uridine, Table 17B): 1 µg/mL; MIC (K. pneumoniae EN0144; EN0144, combination FdUrd+trimethoprim+uridine, Table 19): > 8 µg/mL; MIC (K. pneumoniae EN0144; EN0144, combination didanosine+trimethoprim+uridine, Table 20): > 8 µg/mL; MIC (E. coli EN0136; EN0136, combination FdUrd+trimethoprim+uridine, Table 19): 2 µg/mL; MIC (E. coli EN0136; EN0136, combination didanosine+trimethoprim+uridine, Table 20): > 8 µg/mL
